Results from patent US8399689B2, “Chrysophaentin antimicrobial compounds that inhibit FtsZ protein” (The United States of America, as represented by the …, priority 2010, dated 2013).
Converted amounts (≈) assume the structure as drawn. Where two headings read alike, the source gives them in different places.

What was measured:
[1] = system: Staphylococcus aureus (SA, ATCC 25923); assay: Agar disk diffusion assay, S. aureus; assay type: cell-based; conditions: Lowest concentrations leading to 8-10 mm zones of inhibition
Description: (§1) Compounds 1-8 were tested for antimicrobial activity against Staphylococcus aureus (SA, ATCC 25923), methicillin-resistant S. aureus (MRSA, ATCC BAA-41), multidrug-resistant S. aureus (MDRSA, ATCC BAA-44), Enterococcus faecium (EF, ATCC 49032), vancomycin-resistant E. Faecium (VRE, ATCC 700221), and Bacillus subtilis (ATCC 49343) using a modified disk diffusion assay and microbroth liquid dilution assays. For disk diffusion assays, agar plates seeded with suspensions of bacteria were prepared by adding 500 μL of a 24 h culture of bacteria to 100 mL of autoclaved Mueller Hinton II agar and cooled to 55° C. Seeded liquid agar (10 mL) was transferred immediately to square Petri dishes and allowed to cool for 1 h. Control drugs used for each microorganism included kanamycin (50 μg) for S. aureus, and nitrofurantoin (25 μg) for MRSA. Following incubation at 37° C. for 18 h, zones of inhibition were measured. MICso values for compounds 1 and 4-8 were determined using a microbroth dilution assay outlined in the Clinical and Laboratory Standards Institute methods for susceptibility tests for bacteria that grow aerobically. Briefly, single bacterial colonies were used to inoculate 4 mL of Trypticase Soy broth (BD) for overnight growth and inoculum for each were diluted to 5×10^5 CFU/mL using the 0.5 McFarland standard. In a 96 well plate (Costar, round bottom), control antibiotics (oxacillin for SA and MRSA, vancomycin for EF and VRE, chloramphenicol for B. subtilis) or natural product inhibitors were added to Muller Hinton II broth (for S. aureus, MRSA, and B. subtilis) or 10% brain heart infusion broth (for E. faecium and VRE) in the first column of the well plates, and serially diluted across the plate, reserving wells for a positive growth control (no treatment). 10 μL of diluted bacteria were added to all wells with the exception of those kept for broth blanks (MHII or brain heart infusion broth only). Plates were incubated at 37° C. overnight and read at absorbance 600 nm on a Molecular Devices plate reader. Growth curves were plotted and ICso values obtained using Kalidagraph software.

[2] = system: Staphylococcus aureus (SA, ATCC 25923); assay: Microbroth dilution assay, S. aureus; assay type: cell-based; conditions: for MIC50: Staphylococcus aureus
Description: as §1

[3] = system: vancomycin-resistant E. Faecium (VRE, ATCC 700221); assay: Agar disk diffusion assay, VREF; assay type: cell-based, Enterococcus faecium; conditions: Lowest concentrations leading to 8-10 mm zones of inhibition
Description: as §1

[4] = system: methicillin-resistant S. aureus (MRSA, ATCC BAA-41); assay: Agar disk diffusion assay, MRSA; assay type: cell-based, Staphylococcus aureus; conditions: Lowest concentrations leading to 8-10 mm zones of inhibition
Description: as §1

[5] = system: vancomycin-resistant E. Faecium (VRE, ATCC 700221); assay: Microbroth dilution assay, VREF; assay type: cell-based, Enterococcus faecium; conditions: for MIC50: Enterococcus faecium, read-out: MIC50 (μg/mL) VREF
Description: as §1

[6] = system: Enterococcus faecium (EF, ATCC 49032); assay: Microbroth dilution assay, E. faecium; assay type: cell-based; conditions: concentration at which growth is reduced by 50%; for MIC50: Enterococcus faecium, ATCC49032, microbroth dilution, read-out: MIC50 (μg/mL) E. faecium
Description: as §1

[7] = system: Enterococcus faecium (EF, ATCC 49032); assay: Agar disk diffusion assay, E. faecium; assay type: cell-based; conditions: Lowest concentrations leading to 8-10 mm zones of inhibition
Description: as §1

[8] = system: methicillin-resistant S. aureus (MRSA, ATCC BAA-41); assay: Microbroth dilution assay, MRSA; assay type: cell-based, Staphylococcus aureus; conditions: for MIC50: Staphylococcus aureus, read-out: MIC50 (μg/mL) MRSA
Description: as §1

[9] = system: Gram-positive pathogens (S. aureus, B. subtilis, E. faecium, MRSA, MDRSA, VREF); assay: Disk diffusion and microbroth dilution assays, strains taken together; assay type: cell-based
Text: Solid agar disk diffusion and microbroth dilution assays were used to evaluate the antimicrobial activities of compounds 1, hexaacetate 1a, and 4-8 toward clinically relevant, Gram-positive pathogens, including the drug-susceptible bacteria Staphylococcus aureus, Bacillus subtilis and Enterococcus faecium, and drug-resistant strains methicillin-resistant S. aureus (MRSA), multidrug-resistant S. aureus (MDRSA), and vancomycin-resistant E. faecium (VREF) (see Table 7, Example 2).
as §1, with “In a 96 well plate (Costar, round bottom), control antibiotics (oxacillin for SA and MRSA, vancomycin for EF and VRE, chloramphenicol for B. subtilis) or natural product inhibitors were added to Muller Hinton II broth (for S. aureus, MRSA, and B. subtilis) or 10% brain heart infusion broth (for E. faecium and VRE) in the first column of the well plates, and serially diluted across the plate, reserving wells for a positive growth control (no treatment). 10 μL of diluted bacteria were added to all wells with the exception of those kept for broth blanks (MHII or brain heart infusion broth only).” left out, “Growth curves were plotted and ICso values obtained using Kalidagraph software.” left out

tubulin = assay: Tubulin polymerization assay; assay type: biochemical; conditions: chrysophaentin 1 at 150 μM; paclitaxel, nocodazole at standardized concentrations
[10] = ATCC25923, microbroth dilution, concentration at which growth is reduced by 50%, read-out: MIC50 (μg/mL) S. aureus
[11] = microbroth dilution, concentration at which growth is reduced by 50%
[12] = ATCC25923, read-out: MIC50 (μg/mL) S. aureus

Row | SMILES | Agar disk diffusion (μg/disk) S. aureus [1] | MIC50 [2, 10] [µg/mL] | Agar disk diffusion (μg/disk) VREF [3] | Agar disk diffusion (μg/disk) MRSA [4] | MIC50 [5, 11] [µg/mL] | MIC50 [6] [µg/mL] | Agar disk diffusion (μg/disk) E. faecium [7] | MIC50 [8, 11] [µg/mL] | fold change in MIC50 versus chrysophaentin 1 ([9]; all four strains) [fold] | MIC50 [2, 12] [µg/mL] | MIC50 (μg/mL) VREF [5, 11] [µg/mL] | MIC50 (μg/mL) E. faecium ([6]; microbroth dilution) [µg/mL] | MIC50 (μg/mL) S. aureus [2, 11] [µg/mL] | MIC50 (μg/mL) MRSA [8, 11] [µg/mL] | potency relative to compound 7 [9] | MIC50 [5] [µg/mL] | MIC50 [8] [µg/mL] | tubulin polymerization velocity v (tubulin) [min⁻¹]
1 | Oc1cc(O)c2c(c1)C/C(Cl)=C\Cc1cc(c(Br)cc1O)Oc1c(O)cc(cc1O)C/C(Cl)=C\Cc1cc(c(Br)cc1O)O2 [Compound 4, chrysophaentin 4] | 25 μg/disk | > 25 | 25 μg/disk | 25 μg/disk | > 25 | > 50 | 25 μg/disk | 19 ± 5.9 (≈ 24.8 µM) | ~12 |  |  |  |  |  |  |  |  | 
2 | Oc1cc(O)cc(C/C(Cl)=C\Cc2cc(Oc3c(O)cc(C/C(Cl)=C\Cc4cc(O)c(Cl)cc4O)cc3O)c(Cl)cc2O)c1 [Compound 5, chrysophaentin 5] | 25 μg/disk |  | 25 μg/disk | 10 μg/disk | > 25 | > 25 | 25 μg/disk | 8.9 ± 2.8 (≈ 13.1 µM) |  | 10.5 ± 3.8 (≈ 15.4 µM) | >25 | >25 |  |  |  |  |  | 
3 | Oc1cc(Cl)c2cc1C/C=C(/Cl)Cc1cc(O)c(c(O)c1)Oc1cc(c(O)cc1Cl)C/C=C(/Cl)Cc1cc(O)c(c(O)c1)O2 [Compound 6, chrysophaentin 6] | 10 μg/disk | 4 to 6 (≈ 5.9 to 8.85 µM) | 10 μg/disk | 10 μg/disk | ~9.5 (≈ 14 µM) | > 25 | 10 μg/disk | 4 to 6 (≈ 5.9 to 8.85 µM) |  |  | 9.5 ± 3.0 (≈ 14 µM) |  | 5.3 ± 1.9 (≈ 7.81 µM) | 4.2 ± 1.2 (≈ 6.19 µM) | at least 3 × |  |  | 
4 | Oc1cc(Cl)c2cc1C/C=C(/Cl)Cc1cc(O)c(c(O)c1)Oc1cc(c(O)cc1Br)C/C=C(/Cl)Cc1cc(O)c(c(O)c1)O2 [Compound 7, chrysophaentin 7] | NA (NA, no zone of inhibition observed at 25 μg/disk) |  | NA (NA, no zone of inhibition observed at 25 μg/disk) | NA (NA, no zone of inhibition observed at 25 μg/disk) |  | > 50 | NA (NA, no zone of inhibition observed at 25 μg/disk) |  |  | 16.6 ± 5.3 (≈ 23 µM) |  |  |  |  |  | 24.6 ± 7.3 (≈ 34 µM) | 12.3 ± 3.1 (≈ 17 µM) | 
5 | Oc1cc(Cl)c2cc1C/C=C(/Cl)Cc1cc(O)c(c(O)c1Br)Oc1cc(c(O)cc1Cl)C/C=C(/Cl)Cc1cc(O)c(c(O)c1)O2 [Compound 8, chrysophaentin 8] |  | 4 to 6 (≈ 5.28 to 7.92 µM) |  |  | ~9.5 (≈ 12.5 µM) | > 25 |  | 4 to 6 (≈ 5.28 to 7.92 µM) |  |  |  |  |  |  |  |  |  | 
6 | COC(=O)Nc1nc2ccc(C(=O)c3cccs3)cc2[nH]1 [nocodazole, reference compound] |  |  |  |  |  |  |  |  |  |  |  |  |  |  |  |  |  | 12
7 | CC(=O)O[C@H]1C(=O)[C@@]2(C)[C@H]([C@H](OC(=O)c3ccccc3)[C@]3(O)C[C@H](OC(=O)[C@H](O)[C@@H](NC(=O)c4ccccc4)c4ccccc4)C(C)=C1C3(C)C)[C@]1(OC(C)=O)CO[C@@H]1C[C@@H]2O [paclitaxel, reference compound] |  |  |  |  |  |  |  |  |  |  |  |  |  |  |  |  |  | 80
